One experiment has as its system H1975. Nature of the experiment: H1975 CellTiter-Glo. It is filed as cell-based. The conditions noted are these: Homo sapiens, NCI-H1975; 72 h compound incubation; read-out: H1975 CTG IC50. In short, it runs like this:
(§1)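 Seed cells; incubate 24 h at 37° C., 5% CO2; add compound in DMSO over a concentration range; incubate 72 h; add CellTiter-Glo reagent, stabilise 10 min at room temperature; read luminescence; fit IC50.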
(In ATP-based viability assays light output follows the ATP content of the culture.)

For another experiment, the target named is EGFR wt (Homo sapiens, UniProt P00533). Nature of the experiment: EGFR wt Lance assay. The class given is biochemical. The method, then:
(§2) Inhibition is indicated as […] [nM] (“−”=not measured). Compounds having an activity designated as “A” provided an IC50≤100 nM; compounds having an activity designated as “B” provided an 100 nM<IC50≤500 nM; compounds having an activity designated as “C” provided an 500 nM<IC50≤1000 nM; compounds having an activity designated as “D” provided an 1000 nM<IC50≤100000 nM; and compounds having an activity designated as “E” provided an IC50>10000 nM.

In a further experiment the target is EGFR T790ML858R (Homo sapiens, UniProt P00533, L858R/T790M). Nature of the experiment: EGFR T790ML858R Lance assay. It is filed as biochemical. The procedure:
as §2

The target in experiment [1] is Her2 Exon 20 INSYVMA Ba/F3 (Homo sapiens, UniProt P04626, DUP772-775, cells depend on it). Nature of the experiment: Her2 Exon 20 INSYVMA Ba/F3 CellTiter-Glo. The class given is cell-based. The note with it: CellTiter-Glo, 72 h, read-out: Her2 Exon 20 INSYVMA Ba/F3 CTG IC50. The procedure, abridged: (§3)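 Ba/F3 cells dependent on the mutant kinase, seeded and grown 24 h, then treated with compound for 72 h at 37 °C, 5% CO2. Viability by CellTiter-Glo ATP luminescence versus DMSO and 10 μM staurosporine controls; IC50 from dose-response fit, plates accepted at Z′ ≥0.5; bins A ≤100 nM to E >10000 nM.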
Her2 Exon 20 INSYVMA Ba/F3, sequence (P04626 with tags, fused parts or gaps DUP772-775): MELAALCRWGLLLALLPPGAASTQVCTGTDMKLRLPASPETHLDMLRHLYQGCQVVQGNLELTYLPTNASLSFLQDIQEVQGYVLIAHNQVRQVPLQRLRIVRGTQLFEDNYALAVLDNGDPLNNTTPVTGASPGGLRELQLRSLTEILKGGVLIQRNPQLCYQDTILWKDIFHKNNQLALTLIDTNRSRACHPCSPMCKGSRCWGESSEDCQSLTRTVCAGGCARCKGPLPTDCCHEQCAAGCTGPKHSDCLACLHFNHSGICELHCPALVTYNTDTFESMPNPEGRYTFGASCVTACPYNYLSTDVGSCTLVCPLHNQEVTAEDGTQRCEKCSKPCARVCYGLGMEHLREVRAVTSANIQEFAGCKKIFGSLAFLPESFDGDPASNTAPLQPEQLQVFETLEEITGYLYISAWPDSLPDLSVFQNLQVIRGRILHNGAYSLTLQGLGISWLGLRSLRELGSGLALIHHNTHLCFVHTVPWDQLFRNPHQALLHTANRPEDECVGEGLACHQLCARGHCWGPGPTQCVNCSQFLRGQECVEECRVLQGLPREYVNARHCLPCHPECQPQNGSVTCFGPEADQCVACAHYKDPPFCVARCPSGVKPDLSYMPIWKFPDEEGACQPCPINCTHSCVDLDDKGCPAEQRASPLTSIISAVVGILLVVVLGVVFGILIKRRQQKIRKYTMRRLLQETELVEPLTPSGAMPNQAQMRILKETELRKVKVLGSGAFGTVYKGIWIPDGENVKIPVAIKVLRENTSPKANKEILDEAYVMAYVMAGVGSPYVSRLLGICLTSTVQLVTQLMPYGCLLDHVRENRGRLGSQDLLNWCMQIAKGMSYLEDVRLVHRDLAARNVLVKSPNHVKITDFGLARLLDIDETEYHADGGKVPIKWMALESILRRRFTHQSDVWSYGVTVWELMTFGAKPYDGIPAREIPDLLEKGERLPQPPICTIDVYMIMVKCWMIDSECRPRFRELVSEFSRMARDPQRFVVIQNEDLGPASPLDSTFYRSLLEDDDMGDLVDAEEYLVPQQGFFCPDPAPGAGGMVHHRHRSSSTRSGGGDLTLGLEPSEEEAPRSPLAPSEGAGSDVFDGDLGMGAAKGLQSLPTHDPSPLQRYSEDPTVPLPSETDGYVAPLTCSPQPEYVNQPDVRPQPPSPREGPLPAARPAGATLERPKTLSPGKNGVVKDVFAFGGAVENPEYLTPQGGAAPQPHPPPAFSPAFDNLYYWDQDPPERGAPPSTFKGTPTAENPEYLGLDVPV

Experiment [2] concerns the target EGFR Exon 20 INSNPH Ba/F3 (Homo sapiens, UniProt P00533, DUP771-773, cells depend on it). Nature of the experiment: EGFR Exon 20 INSNPH Ba/F3 CellTiter-Glo. The class given is cell-based. The conditions noted are these: CellTiter-Glo, 72 h, read-out: EGFR Exon 20 INSNPH Ba/F3 CTG IC50. In short, it runs like this:
as §3

The subject of the next experiment is A431. Nature of the experiment: A431 CellTiter-Glo. The note with it: Homo sapiens, A-431; 72 h compound incubation; read-out: A431 CTG IC50. The class given is cell-based. In short, it runs like this:
as §1

The target in the next experiment is T1, HER2 INS YVMA (Homo sapiens, UniProt P04626, INS775YVMA).
T1 construct: purchased DPF
T1 sequence (P04626 with tags, fused parts or gaps INS775YVMA): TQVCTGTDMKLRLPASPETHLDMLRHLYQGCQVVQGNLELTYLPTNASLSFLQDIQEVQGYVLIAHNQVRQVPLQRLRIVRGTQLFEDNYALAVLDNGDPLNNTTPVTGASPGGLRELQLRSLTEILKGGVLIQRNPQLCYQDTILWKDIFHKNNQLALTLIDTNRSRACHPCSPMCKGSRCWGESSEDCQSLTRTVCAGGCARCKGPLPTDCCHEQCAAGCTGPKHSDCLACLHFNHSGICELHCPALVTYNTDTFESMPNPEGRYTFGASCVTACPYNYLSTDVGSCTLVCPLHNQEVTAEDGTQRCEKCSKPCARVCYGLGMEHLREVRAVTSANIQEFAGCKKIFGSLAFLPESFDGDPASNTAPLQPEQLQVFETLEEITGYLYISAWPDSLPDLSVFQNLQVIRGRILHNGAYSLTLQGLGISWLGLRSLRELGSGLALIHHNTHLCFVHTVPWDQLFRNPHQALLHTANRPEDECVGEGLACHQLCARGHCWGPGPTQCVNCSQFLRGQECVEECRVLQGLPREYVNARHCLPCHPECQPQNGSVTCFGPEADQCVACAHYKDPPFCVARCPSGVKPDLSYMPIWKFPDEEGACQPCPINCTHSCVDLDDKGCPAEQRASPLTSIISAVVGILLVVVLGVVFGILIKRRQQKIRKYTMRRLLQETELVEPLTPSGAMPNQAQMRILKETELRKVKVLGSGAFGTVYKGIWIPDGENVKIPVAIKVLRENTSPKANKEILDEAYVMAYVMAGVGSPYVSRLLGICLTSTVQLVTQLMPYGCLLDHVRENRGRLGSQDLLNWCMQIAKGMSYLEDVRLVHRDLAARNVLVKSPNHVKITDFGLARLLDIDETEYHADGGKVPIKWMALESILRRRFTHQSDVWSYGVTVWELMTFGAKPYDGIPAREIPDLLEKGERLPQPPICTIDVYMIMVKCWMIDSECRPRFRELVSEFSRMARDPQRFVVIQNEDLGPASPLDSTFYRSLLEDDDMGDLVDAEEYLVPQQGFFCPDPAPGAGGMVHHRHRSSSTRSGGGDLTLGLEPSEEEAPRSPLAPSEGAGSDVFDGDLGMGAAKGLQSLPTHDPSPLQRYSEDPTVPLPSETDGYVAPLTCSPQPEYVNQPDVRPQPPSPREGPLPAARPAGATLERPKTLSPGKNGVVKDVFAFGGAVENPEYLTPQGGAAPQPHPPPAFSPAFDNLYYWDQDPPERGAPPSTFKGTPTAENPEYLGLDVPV
Nature of the experiment: Lance Kinase Activity Assay, HER2 INS YVMA (Her2 Exon 20 INSYVMA Lance). It is filed as biochemical. The note with it: biochemical Lance assay. In short, it runs like this:
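IC50 was fitted to sigmoidal curves of TR-FRET signal (665 and 615 nm emission after 340 nm excitation) from an Eu anti-phospho antibody binding the phosphorylated ULight peptide. The ATP-started reaction ran 1 h at RT and was then quenched with 10 mM EDTA plus antibody for a further 1 h. Compounds were tested as 8-point, 3-fold dilutions.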

EGFR wt, sequence (P00533 25-1210): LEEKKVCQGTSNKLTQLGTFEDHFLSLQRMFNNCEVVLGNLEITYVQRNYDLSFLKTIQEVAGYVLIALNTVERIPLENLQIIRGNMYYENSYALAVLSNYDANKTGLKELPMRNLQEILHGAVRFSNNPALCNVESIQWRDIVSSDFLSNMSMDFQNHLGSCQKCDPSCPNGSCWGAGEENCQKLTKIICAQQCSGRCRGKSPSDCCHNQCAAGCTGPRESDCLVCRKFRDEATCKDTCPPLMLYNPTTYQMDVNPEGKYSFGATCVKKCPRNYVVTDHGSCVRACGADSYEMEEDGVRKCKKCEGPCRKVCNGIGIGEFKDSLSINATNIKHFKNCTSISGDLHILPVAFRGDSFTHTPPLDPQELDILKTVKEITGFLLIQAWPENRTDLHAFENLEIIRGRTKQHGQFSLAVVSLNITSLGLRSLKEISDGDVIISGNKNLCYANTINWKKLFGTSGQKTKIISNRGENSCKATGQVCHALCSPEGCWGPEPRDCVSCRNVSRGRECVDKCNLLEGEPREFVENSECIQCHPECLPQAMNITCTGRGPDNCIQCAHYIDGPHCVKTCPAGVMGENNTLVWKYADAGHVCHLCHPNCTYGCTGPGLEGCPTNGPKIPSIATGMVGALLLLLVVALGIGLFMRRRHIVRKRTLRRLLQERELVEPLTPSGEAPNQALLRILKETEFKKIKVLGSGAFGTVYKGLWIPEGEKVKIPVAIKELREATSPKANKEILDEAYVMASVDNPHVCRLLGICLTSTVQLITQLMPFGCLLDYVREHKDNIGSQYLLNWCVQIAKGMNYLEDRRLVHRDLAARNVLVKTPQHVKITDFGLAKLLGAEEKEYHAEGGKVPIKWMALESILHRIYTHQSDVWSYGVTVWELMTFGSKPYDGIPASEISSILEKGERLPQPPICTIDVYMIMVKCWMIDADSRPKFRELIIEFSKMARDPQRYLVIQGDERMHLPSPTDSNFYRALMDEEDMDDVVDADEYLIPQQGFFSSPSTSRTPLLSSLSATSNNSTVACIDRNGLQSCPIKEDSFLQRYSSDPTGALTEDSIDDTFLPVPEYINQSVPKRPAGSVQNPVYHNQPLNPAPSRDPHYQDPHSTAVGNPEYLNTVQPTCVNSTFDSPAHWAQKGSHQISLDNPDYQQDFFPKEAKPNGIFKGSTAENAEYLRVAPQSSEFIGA
EGFR Exon 20 INSNPH Ba/F3, sequence (P00533 with tags, fused parts or gaps DUP771-773): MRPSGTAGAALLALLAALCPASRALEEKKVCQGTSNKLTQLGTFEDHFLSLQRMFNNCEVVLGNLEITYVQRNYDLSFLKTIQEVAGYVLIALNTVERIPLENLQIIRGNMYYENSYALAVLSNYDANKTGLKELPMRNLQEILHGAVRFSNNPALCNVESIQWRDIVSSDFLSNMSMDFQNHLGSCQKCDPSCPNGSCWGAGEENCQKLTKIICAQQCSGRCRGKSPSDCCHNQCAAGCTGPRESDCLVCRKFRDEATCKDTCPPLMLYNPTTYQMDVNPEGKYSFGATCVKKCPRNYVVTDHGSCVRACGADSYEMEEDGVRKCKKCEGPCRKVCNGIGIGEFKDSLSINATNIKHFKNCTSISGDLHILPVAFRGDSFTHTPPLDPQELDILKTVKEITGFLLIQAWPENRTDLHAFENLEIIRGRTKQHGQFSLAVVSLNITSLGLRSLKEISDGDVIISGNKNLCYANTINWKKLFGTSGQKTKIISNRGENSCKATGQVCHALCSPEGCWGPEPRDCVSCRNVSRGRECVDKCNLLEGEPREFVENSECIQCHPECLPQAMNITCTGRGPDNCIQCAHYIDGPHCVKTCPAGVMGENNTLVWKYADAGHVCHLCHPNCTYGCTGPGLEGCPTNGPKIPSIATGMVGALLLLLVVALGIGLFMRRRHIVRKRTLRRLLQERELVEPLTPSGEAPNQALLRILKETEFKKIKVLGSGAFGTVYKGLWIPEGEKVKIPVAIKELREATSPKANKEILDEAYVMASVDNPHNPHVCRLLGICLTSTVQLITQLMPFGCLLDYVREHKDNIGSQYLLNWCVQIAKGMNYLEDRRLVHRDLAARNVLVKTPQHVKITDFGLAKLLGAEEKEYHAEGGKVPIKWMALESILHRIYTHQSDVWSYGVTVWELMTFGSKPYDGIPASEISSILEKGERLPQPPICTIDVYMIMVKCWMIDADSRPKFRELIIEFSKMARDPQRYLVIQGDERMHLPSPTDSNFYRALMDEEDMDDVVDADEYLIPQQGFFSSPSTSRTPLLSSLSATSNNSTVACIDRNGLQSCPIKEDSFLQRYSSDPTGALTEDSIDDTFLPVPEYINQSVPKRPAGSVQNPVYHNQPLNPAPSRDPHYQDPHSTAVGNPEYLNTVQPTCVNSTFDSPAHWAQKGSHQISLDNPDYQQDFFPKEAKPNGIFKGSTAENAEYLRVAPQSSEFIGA

Consider `C=CC(=O)Nc1cc(-c2c(-c3ccc(N4CCN(S(=O)(=O)CC)CC4)cc3)[nH]c3ncc(C(=O)OC(C)C)cc23)ccc1C` [Example 184, isopropyl 3-(3-acrylamido-4-methylphenyl)-2-(4-(4-(ethylsulfonyl)piperazin-1-yl)phenyl)-1H-pyrrolo[2,3-b]pyridine-5-carboxylate], for which the IC50 (usually the concentration that inhibits the measured activity by half) with H1975 was 1000 to 100000 nM; on EGFR wt it was no more than 100 nM; against EGFR T790ML858R, 100 to 500 nM; in the experiment with A431 it was greater than 10000 nM; against HER2 INS YVMA, 500 to 1000 nM. Besides, the GI50 in experiment [1] and in experiment [2] was 1000 to 10000 nM in each case.
`C=CC(=O)Nc1cc(-c2c(-c3cccc(N4CCN(C(C)=O)CC4)c3)[nH]c3ncc(C(=O)OC(C)C)cc23)ccc1C` [Example 185, isopropyl 2-(3-(4-acetylpiperazin-1-yl)phenyl)-3-(3-acrylamido-4-methylphenyl)-1H-pyrrolo[2,3-b]pyridine-5-carboxylate]: the IC50 is 1000 to 100000 nM in the experiment on H1975; no more than 100 nM at EGFR wt; 500 to 1000 nM against EGFR T790ML858R; greater than 10000 nM in the experiment with A431; 1000 to 10000 nM at HER2 INS YVMA. The GI50 in experiment [1] and in experiment [2] was 1000 to 10000 nM each time.
For the compound `C=CC(=O)Nc1cc(-c2c(-c3cccc(CN4CCN(C(C)=O)CC4)c3)[nH]c3ncc(C(=O)OC(C)C)cc23)ccc1C` [Example 186, isopropyl 2-(3-((4-acetylpiperazin-1-yl)methyl)phenyl)-3-(3-acrylamido-4-methylphenyl)-1H-pyrrolo[2,3-b]pyridine-5-carboxylate], the IC50 in the experiment on H1975 was 1000 to 100000 nM; against EGFR wt, no more than 100 nM; against EGFR T790ML858R, 100 to 500 nM; in the experiment on A431 it was 1000 to 100000 nM; against HER2 INS YVMA, 100 to 500 nM. Further, the GI50 in experiment [1] and in experiment [2] was 1000 to 10000 nM each time.
For `C=CC(=O)Nc1cc(-c2c(-c3ccc(N4CCN(C)CC4)cc3)[nH]c3ncc(OC(F)(F)F)cc23)ccc1C` [Example 188, N-(2-methyl-5-(2-(4-(4-methylpiperazin-1-yl)phenyl)-5-(trifluoromethoxy)-1H-pyrrolo[2,3-b]pyridin-3-yl)phenyl)acrylamide 2,2,2-trifluoroacetate], the IC50 was 100 to 500 nM in the experiment on H1975; no more than 100 nM at EGFR wt; no more than 100 nM at EGFR T790ML858R; 1000 to 100000 nM in the experiment on A431; no more than 100 nM on HER2 INS YVMA. Further, the GI50 in experiment [1] and in experiment [2] was 100 to 500 nM throughout.
For the compound `C=CC(=O)Nc1cc(-c2c(-c3ccc(N4CCN(C)CC4)cc3)[nH]c3ncc(CC(=O)O)cc23)ccc1C` [Example 189, 2-(3-(3-acrylamido-4-methylphenyl)-2-(4-(4-methylpiperazin-1-yl)phenyl)-1H-pyrrolo[2,3-b]pyridin-5-yl)acetic acid 2,2,2-trifluoroacetate], the IC50 in the experiment with H1975 was greater than 10000 nM; against EGFR wt it was no more than 100 nM; at EGFR T790ML858R, no more than 100 nM; in the experiment with A431, greater than 10000 nM; against HER2 INS YVMA, no more than 100 nM. The GI50 in experiment [1] and in experiment [2] was greater than 10000 nM in each case.
As for `C=CC(=O)Nc1cc(-c2c(-c3ccc(N4CCN(C)CC4)cc3)[nH]c3ncc(CC(=O)OC(C)C)cc23)ccc1C` [Example 190, isopropyl 2-(3-(3-acrylamido-4-methylphenyl)-2-(4-(4-methylpiperazin-1-yl)phenyl)-1H-pyrrolo[2,3-b]pyridin-5-yl)acetate 2,2,2-trifluoroacetate], the IC50 with H1975 was 100 to 500 nM; at EGFR wt, no more than 100 nM; against EGFR T790ML858R, no more than 100 nM; in the experiment on A431 it was 1000 to 100000 nM; against HER2 INS YVMA, no more than 100 nM. In addition, the GI50 in experiment [1] and in experiment [2] was 100 to 500 nM in each case.
For the compound `C=CC(=O)Nc1cc(-c2c(-c3ccc(N4CCN(C)CC4)cc3)[nH]c3ncc(CC)cc23)ccc1C` [Example 191, N-(5-(5-ethyl-2-(4-(4-methylpiperazin-1-yl)phenyl)-1H-pyrrolo[2,3-b]pyridin-3-yl)-2-methylphenyl)acrylamide 2,2,2-trifluoroacetate], the IC50 in the experiment with H1975 is no more than 100 nM; against EGFR wt, no more than 100 nM; on EGFR T790ML858R, no more than 100 nM; in the experiment on A431, 1000 to 100000 nM; on HER2 INS YVMA it was no more than 100 nM. The GI50 in experiment [1] and in experiment [2] was 100 to 500 nM in each case.
Turning to `C=CC(=O)N1CCc2ccc(-c3c(-c4ccc(N5CCN(C)CC5)cc4)[nH]c4ncc(C(=O)OC(C)C)cc34)cc21` [Example 192, isoproyl 3-(1-acryloylindolin-6-yl)-2-(4-(4-methylpiperazin-1-yl)phenyl)-1H-pyrrolo[2,3-b]pyridine-5-carboxylate 2,2,2-trifluoroacetate], the IC50 is 1000 to 100000 nM with H1975; no more than 100 nM against EGFR wt; no more than 100 nM against EGFR T790ML858R; 1000 to 100000 nM with A431; no more than 100 nM at HER2 INS YVMA. Besides, the GI50 in experiment [1] lay within 100 to 500 nM; in experiment [2], 500 to 1000 nM.
For `C=CC(=O)Nc1cc(-c2c(-c3ccc(N4CCN(C)CC4)cc3)[nH]c3ncc(OCC)cc23)ccc1C` [Example 193, N-(5-(5-ethoxy-2-(4-(4-methylpiperazin-1-yl)phenyl)-1H-pyrrolo[2,3-b]pyridin-3-yl)-2-methylphenyl)acrylamide 2,2,2-trifluoroacetate], the IC50 with H1975 is 100 to 500 nM; at EGFR wt, no more than 100 nM; at EGFR T790ML858R it was no more than 100 nM; with A431 it was 1000 to 100000 nM; against HER2 INS YVMA, no more than 100 nM. For the same compound, the GI50 in experiment [1] is no more than 100 nM; in experiment [2], 100 to 500 nM.
As for `C=CC(=O)Nc1cc(-c2c(-c3ccc(N4CCN(C)CC4)cc3)[nH]c3ncc(CC(=O)N(C)C)cc23)ccc1C` [Example 194, N-(5-(5-(2-(dimethylamino)-2-oxoethyl)-2-(4-(4-methylpiperazin-1-yl)phenyl)-1H-pyrrolo[2,3-b]pyridin-3-yl)-2-methylphenyl)acrylamide 2,2,2-trifluoroacetate], the IC50 in the experiment with H1975 was 1000 to 100000 nM; against EGFR wt, no more than 100 nM; against EGFR T790ML858R it was no more than 100 nM; in the experiment with A431 it was 1000 to 100000 nM; against HER2 INS YVMA it was no more than 100 nM. The GI50 in experiment [1] and in experiment [2] was 1000 to 10000 nM each time.
As for `C=CC(=O)Nc1cc(-c2c(-c3ccc(N4CCN(C)CC4)cc3)[nH]c3ncc(CC(=O)OC)cc23)ccc1C` [Example 195, methyl 2-(3-(3-acrylamido-4-methylphenyl)-2-(4-(4-methylpiperazin-1-yl)phenyl)-1H-pyrrolo[2,3-b]pyridin-5-yl)acetate], the IC50 was 100 to 500 nM with H1975; no more than 100 nM at EGFR wt; no more than 100 nM against EGFR T790ML858R; 1000 to 100000 nM with A431; no more than 100 nM at HER2 INS YVMA. The GI50 in experiment [1] and in experiment [2] was 100 to 500 nM throughout.
For the compound `C=CC(=O)Nc1cc(-c2c(-c3ccc(N4CCN(C)CC4)cc3)[nH]c3ncc(CC(=O)OC4COC4)cc23)ccc1C` [Example 197, oxetan-3-yl 2-(3-(3-acrylamido-4-methylphenyl)-2-(4-(4-methylpiperazin-1-yl)phenyl)-1H-pyrrolo[2,3-b]pyridin-5-yl)acetate], the IC50 in the experiment on H1975 was 500 to 1000 nM; against EGFR wt it was no more than 100 nM; on EGFR T790ML858R, no more than 100 nM; in the experiment on A431, 1000 to 100000 nM; against HER2 INS YVMA, no more than 100 nM. Besides, the GI50 lay within 1000 to 10000 nM in experiment [1] and 100 to 500 nM in experiment [2].
Consider `C=CC(=O)Nc1cc(-c2c(-c3ccc(N4CCN(C)CC4)cc3)[nH]c3ncc(CO)cc23)ccc1C` [Example 199, N-(5-(5-(hydroxymethyl)-2-(4-(4-methylpiperazin-1-yl)phenyl)-1H-pyrrolo[2,3-b]pyridin-3-yl)-2-methylphenyl)acrylamide 2,2,2-trifluoroacetate], for which the IC50 with H1975 is 100 to 500 nM; against EGFR wt, no more than 100 nM; against EGFR T790ML858R, no more than 100 nM; with A431, 1000 to 100000 nM; on HER2 INS YVMA it was no more than 100 nM. Further, the GI50 in experiment [1] was 500 to 1000 nM; in experiment [2] it was 100 to 500 nM.

(Values after patent publication US20220370440A1 (Lead Discovery Center GmbH, priority 2018, published 2022).)
